Data reported in patent EP0266896A1, “7-( (Meta-substituted) phenylglycine) 1-carba-1-dethiacephalosporins” (priority 1986, dated 1988).
Structures can show the parent of a compound that is named as a salt. Where two headings read alike, the source gives them in different places.

Legend:
[1] = tested on: Hemophilus influenzae C.L.; experiment: MIC by standard agar dilution test; assay type: cell-based
Source text: (§1) The antibiotic activity of selected compounds of Formula I and, for comparison, a compound of related structure, is illustrated by the following in vitro test data. In Table I, the minimum inhibitory concentrations (MIC) for the compounds against a wide range of gram-positive and gram-negative bacteria are presented. The MIC values were obtained by the standard agar dilution test method. The excellent in vitro activity of the claimed compounds is especially surprising in light of their high solution stability. High solution stability of a β-lactam compound was until now thought to indicate low acylating ability of the β-lactam, and thus low antibacterial activity for the compound.

[2] = tested on: Staphylococcus epidermidis EPI2; experiment: MIC by standard agar dilution test; assay type: cell-based; conditions: Staphylococcus epidermidis EPI2, methicillin resistant
Source text: as §1

Escherichia coli TEM = experiment: MIC by standard agar dilution test; assay type: cell-based; conditions: β-lactamase producer
Source text: as §1

Shigella sonnei N9 = experiment: MIC by standard agar dilution test; assay type: cell-based
Source text: as §1

Salmonella typhi 1335 = experiment: MIC by standard agar dilution test; assay type: cell-based
Source text: as §1

[3] = tested on: Staphylococcus epidermidis EPI1; experiment: MIC by standard agar dilution test; assay type: cell-based; conditions: Staphylococcus epidermidis EPI1, methicillin resistant
Source text: as §1

[4] = tested on: Streptococcus pneumoniae Park I; experiment: MIC by standard agar dilution test; assay type: cell-based
Source text: as §1

[5] = tested on: Staphylococcus aureus V41; experiment: MIC by standard agar dilution test; assay type: cell-based; conditions: Staphylococcus aureus V41, penicillin G resistant
Source text: as §1

[6] = tested on: Staphylococcus aureus S13E; experiment: MIC by standard agar dilution test; assay type: cell-based; conditions: β-lactamase producer, penicillin G resistant
Source text: as §1

Salmonella typhi X514 = experiment: MIC by standard agar dilution test; assay type: cell-based
Source text: as §1

[7] = Intravenous pharmacokinetics in the rat, plasma levels monitored by bioassay with an E. coli strain
Procedure: (§2) The tests were performed by methods well-recognized in the art.
(§3) Specifically, the male Sprague-Dawley rats were administered a 20 mg/kg dose intravenously. The plasma levels of the administered compound were monitored by bioassay with an E. coli strain.

[8] = rat, in vivo, iv, 20 mg/kg
Procedure: as §2, §3

Structure (SMILES)	Minimum Inhibitory Concentration (Shigella sonnei N9) [µg/mL]	Minimum Inhibitory Concentration (Salmonella typhi 1335) [µg/mL]	Minimum Inhibitory Concentration [6] [µg/mL]	Minimum Inhibitory Concentration (Salmonella typhi X514) [µg/mL]	AUC (area under the curve) [8]	Half-Life [8] [h]	other results
CS(=O)(=O)Nc1cccc([C@@H](N)C(=O)N[C@@H]2C(=O)N3C(C(=O)O)=C(Cl)CC[C@H]23)c1.O=C(O)C(F)(F)F [Example 1, 7β-[2ʹ-(R)-2ʹ-(m-(Methylsulfonamido)phenyl)-2ʹ-Aminoactamido]-3-Chloro-3-(1-Carba-1-Dethiacephem)-4-Carboxyli c Acid Trifluoroacetate Salt]	0.5	0.5	2	0.5			Minimum Inhibitory Concentration [1]: 2 µg/mL; Minimum Inhibitory Concentration [2]: 2 µg/mL; Minimum Inhibitory Concentration (Escherichia coli TEM): 0.25 µg/mL; Minimum Inhibitory Concentration [3]: 4 µg/mL; Minimum Inhibitory Concentration [4]: 1 µg/mL; Minimum Inhibitory Concentration [5]: 4 µg/mL; Half-Life ([7]; rat plasma, 20 mg/kg intravenously, bioassay, model-independent analysis): 5.57 h
CS(=O)(=O)Nc1cccc([C@@H](N)C(=O)N[C@@H]2C(=O)N3C(C(=O)O)=C(Cl)CC[C@H]23)c1 [Example 2, 7β-[2ʹ-(R)-2ʹ-(m-(Methylsulfonamido)phenyl)-2ʹ-Aminoactamido]-3-Chloro-3-(1-Carba-1-Dethiacephem)-4-Carboxyli c Acid, Zwitterionic Salt]							Half-Life ([7]; rat, plasma, iv, 20 mg/kg): 5.28 h
CCS(=O)(=O)Nc1cccc(C(N)C(=O)N[C@@H]2C(=O)N3C(C(=O)O)=C(Cl)CC[C@H]23)c1.O=C(O)C(F)(F)F (stereo partly drawn) [Example 3, 7β-[2ʹ-(R,S)-2ʹ-(m-(Ethylsulfonamido)phenyl)-2ʹ-Aminoaetamido]-3-Chloro-3-(1-Carba-1-Dethiacephem)-4-Carboxyl ic Acid Trifluoroacetate Salt]					18	0.55	
CCS(=O)(=O)Nc1cccc([C@@H](N)C(=O)N[C@@H]2C(=O)N3C(C(=O)O)=C(Cl)CC[C@H]23)c1 [Example 4, 7β-[2ʹ-(R)-2ʹ-(m-(Ethylsulfonamido)phenyl)-2ʹ-Aminoace amido)-3-Chloro-3-(1-Carba-1-Dethiacephem)-4-Carboxylic Acid, Zwitterionic Salt]	2	2	2	2	12	0.683	
CCCS(=O)(=O)Nc1cccc([C@@H](N)C(=O)N[C@@H]2C(=O)N3C(C(=O)O)=C(Cl)CC[C@H]23)c1 [Example 5, 7β-[2ʹ-(R)-2ʹ-(m-(n-Propylsulfonamido)phenyl)-2ʹ-Aminocetamido]-3-Chloro-3-(1-Carba-1-Dethiacephem)-4-Carboxy lic Acid, Zwitterionic Salt.]					20	0.65	
